# Molecular target: T1, cloned human H3 receptors (Homo sapiens, UniProt Q9Y5N1)
# T1 construct: expressed in transfected cells; host or cells: SK-N-MC cells
# Experiment: H3 Receptor Binding (Human)
# Conditions: cloned human H3 receptors stably expressed in SK-N-MC cells; average of the results obtained
# Description: Binding of compounds to the cloned human H3 receptors, stably expressed in SK-N-MC cells, was performed as described by Barbier, A. J. et al. (Br. J. Pharmacol. 2004, 143(5), 649-661). Data for compounds tested in this assay are presented in Table 1 as an average of the results obtained.
# T1 sequence (Q9Y5N1 whole entry): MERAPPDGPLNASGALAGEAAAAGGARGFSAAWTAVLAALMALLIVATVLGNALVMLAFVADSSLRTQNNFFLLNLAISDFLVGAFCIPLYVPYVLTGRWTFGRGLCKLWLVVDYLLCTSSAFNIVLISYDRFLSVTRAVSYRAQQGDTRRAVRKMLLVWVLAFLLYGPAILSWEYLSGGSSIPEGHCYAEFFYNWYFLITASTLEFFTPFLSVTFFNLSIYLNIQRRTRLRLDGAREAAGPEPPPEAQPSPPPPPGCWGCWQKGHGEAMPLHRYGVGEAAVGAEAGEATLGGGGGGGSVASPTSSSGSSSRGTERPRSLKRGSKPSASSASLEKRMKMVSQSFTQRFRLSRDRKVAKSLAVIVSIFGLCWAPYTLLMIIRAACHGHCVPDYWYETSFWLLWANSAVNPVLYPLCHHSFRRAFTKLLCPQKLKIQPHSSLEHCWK
row,Structure (SMILES),Ki
1,"CC(C)N1CCN(C(=O)c2ccc3c(c2)CCN(Cc2ccccc2)C3)CC1 [Example 21, (2-Benzyl-1,2,34-tetrahydro-isoquinolin-6-yl)-(4-isopropyl-piperazin-1-yl)-methanone]",28 nM
2,"O=C(c1ccc2c(c1)CCN(Cc1ccc(C(F)(F)F)cc1)C2)N1CCN(C2CC2)CC1 [Example 23, (4-Cyclopropyl-piperazin-1-yl)-[2-(4-trifluoromethyl-benzyl)-1,2,3,4-tetrahydro-isoquinolin-6-yl]-methanone]",114 nM
3,"O=C(c1ccc2c(c1)CCN(Cc1ccc(Cl)cc1)C2)N1CCN(C2CC2)CC1 [Example 24, [2-(4-Chloro-benzyl)-1,2,3,4-tetrahydro-isoquinolin-6-yl]-(4-cyclopropyl-piperazin-1-yl)-methanone]",75 nM
4,"CC(=O)N1CCc2cc(C(=O)N3CCN(C(C)C)CC3)ccc2C1 [Example 29, 1-[6-(4-Isopropyl-piperazine-1-carbonyl)-3,4-dihydro-1H-isoquinolin-2-yl]-ethanone]",80 nM
5,"CC(=O)N1CCc2cc(C(=O)N3CCN(C4CCC4)CC3)ccc2C1 [Example 30, 1-[6-(4-Cyclobutyl-piperazine-1-carbonyl)-3,4-dihydro-1H-isoquinolin-2-yl]-ethanone]",36 nM
6,"O=C(c1ccc2c(c1)CCN(C(=O)C1CCC1)C2)N1CCN(C2CCC2)CC1 [Example 31, Cyclobutyl-[6-(4-cyclobutyl-piperazine-1-carbonyl)-3,4-dihydro-1H-isoquinolin-2-yl]-methanone]",87 nM
7,"CC(C)(C)c1ccc(C(=O)N2CCc3cc(C(=O)N4CCC[C@H]4CN4CCCC4)ccc3C2)cc1 [Example 49, (S)-(4-tert-Butyl-phenyl)-[6-(2-pyrrolidin-1-ylmethyl-pyrrolidine-1-carbonyl)-3,4-dihydro-1H-isoquinolin-2-yl]-methanone]",46 nM
8,"Cc1ccc(C(=O)N2CCc3cc(C(=O)N4CCC[C@H]4CN4CCCC4)ccc3C2)cc1 [Example 55, (S)-[6-(2-Pyrrolidin-1-ylmethyl-pyrrolidine-1-carbonyl)-3,4-dihydro-1H-isoquinolin-2-yl]-p-tolyl-methanone]",22 nM
9,"O=C(c1ccccc1F)N1CCc2cc(C(=O)N3CCC[C@H]3CN3CCCC3)ccc2C1 [Example 56, (S)-(2-Fluoro-phenyl)-[6-(2-Pyrrolidin-1-ylmethyl-pyrrolidine-1-carbonyl)-3,4-dihydro-1H-isoquinolin-2-yl]-methanone]",23 nM
10,"COc1ccc(C(=O)N2CCc3cc(C(=O)N4CCC[C@H]4CN4CCCC4)ccc3C2)cc1 [Example 60, (S)-(4-Methoxy-phenyl)-[6-(2-pyrrolidin-1-ylmethyl-pyrrolidine-1-carbonyl)-3,4-dihydro-1H-isoquinolin-2-yl]-methanone]",21 nM
11,"O=C(c1ccc2c(c1)CCN(C(=O)c1cccc(F)c1)C2)N1CCN(C2CCC2)CC1 [Example 62, (4-Cyclobutyl-piperazin-1-yl)-[2-(3-fluoro-benzoyl)-1,2,3,4-tetrahydro-isoquinolin-6-yl]-methanone]",24 nM
12,"CCC(=O)N1CCc2cc(C(=O)N3CCN(C4CCCC4)CC3)ccc2C1 [Example 63, 1-[6-(4-Cyclopentyl-piperazine-1-carbonyl)-3,4-dihydro-1H-isoquinolin-2-yl]-propan-1-one]",61 nM
13,"CC(C)(C)C(=O)N1CCc2cc(C(=O)N3CCN(C4CCCC4)CC3)ccc2C1 [Example 64, 1-[6-(4-Cyclopentyl-piperazine-1-carbonyl)-3,4-dihydro-1H-isoquinolin-2-yl]-2,2-dimethyl-propan-1-one]",100 nM
14,"O=C(c1ccc2c(c1)CCN(C(=O)c1ccccc1)C2)N1CCN(C2CCCC2)CC1 [Example 65, (2-Benzoyl-1,2,3,4-tetrahydro-isoquinolin-6-yl)-(4-cyclopentyl-piperazin-1-yl)-methanone]",100 nM
15,"O=C(c1ccc2c(c1)CCN(C(=O)c1ccccc1F)C2)N1CCN(C2CCCC2)CC1 [Example 66, (4-Cyclopentyl-piperazin-1-yl)-[2-(2-fluoro-benzoyl)-1,2,3,4-tetrahydro-isoquinolin-6-yl]-methanone]",43 nM
16,"O=C(c1ccc2c(c1)CCN(C(=O)c1ccc(F)cc1)C2)N1CCN(C2CCCC2)CC1 [Example 67, (4-Cyclopentyl-piperazin-1-yl)-[2-(4-fluoro-benzoyl)-1,2,3,4-tetrahydro-isoquinolin-6-yl]-methanone]",53 nM

# The next molecules have a lower Ki than those just listed; values first:
row,Ki,Structure (SMILES)
1,15 nM,"N#Cc1ccc(CN2CCc3cc(C(=O)N4CCN(C5CCC5)CC4)ccc3C2)cc1 [Example 25, 4-[6-(4-Cyclobutyl-piperazine-1-carbonyl)-3,4-dihydro-1H-isoquinolin-2-ylmethyl]-benzonitrile]"
2,16 nM,"CC(C)N1CCN(C(=O)c2ccc3c(c2)CCN(C(=O)c2ccccc2)C3)CC1 [Example 28, (2-Benzoyl-1,2,3,4-tetrahydro-isoquinolin-6-yl)-(4-isopropyl-piperazin-1-yl)-methanone]"
3,14 nM,"O=C(c1ccc2c(c1)CCN(C(=O)C1CC1)C2)N1CCN(C2CCC2)CC1 [Example 34, [6-(4-Cyclobutyl-piperazine-1-carbonyl)-3,4-dihydro-1H-isoquinolin-2-yl]-cyclopropyl-methanone]"
4,1 nM,"O=C(c1ccc2c(c1)CN(C(=O)C1CCCC1)CC2)N1CCCN(C2CCC2)CC1 [Example 37, [7-(4-Cyclobutyl-[1,4]diazepane-1-carbonyl)-3,4-dihydro-1H-isoquinolin-2-yl]-cyclopentyl-methanone]"
5,1 nM,"O=C(c1ccc2c(c1)CN(C(=O)C1CCCCC1)CC2)N1CCCN(C2CCC2)CC1 [Example 38, [7-(4-Cyclobutyl-[1,4]diazepane-1-carbonyl)-3,4-dihydro-1H-isoquinolin-2-yl]-cyclohexyl-methanone]"
6,15 nM,"CC(C)(C)C(=O)N1CCc2cc(C(=O)N3CCN(C4CCC4)CC3)ccc2C1 [Example 41, 1-[6-(4-Cyclobutyl-piperazine-1-carbonyl)-3,4-dihydro-1H-isoquinolin-2-yl]-2,2-dimethyl-propan-1-one]"
7,10 nM,"O=C(c1ccc2c(c1)CCN(C(=O)c1ccccc1Cl)C2)N1CCN(C2CCC2)CC1 [Example 42, (2-Chloro-phenyl)-[6-(4-cyclobutyl-piperazine-1-carbonyl)-3,4-dihydro-1H-isoquinolin-2-yl]-methanone]"
8,20 nM,"O=C(CC1CCCC1)N1CCc2cc(C(=O)N3CCN(C4CCC4)CC3)ccc2C1 [Example 43, 1-[6-(4-Cyclobutyl-piperazine-1-carbonyl)-3,4-dihydro-1H-isoquinolin-2-yl]-2-cyclopentyl-ethanone]"
9,19 nM,"O=C(c1ccc2c(c1)CCN(C(=O)c1ccoc1)C2)N1CCN(C2CCC2)CC1 [Example 44, [6-(4-Cyclobutyl-piperazine-1-carbonyl)-3,4-dihydro-1H-isoquinolin-2-yl]-furan-3-yl-methanone]"
10,16 nM,"CC(C)(C)C(=O)N1CCc2cc(C(=O)N3CCC[C@H]3CN3CCCC3)ccc2C1 [Example 47, (S)-2,2-Dimethyl-1-[6-(2-pyrrolidin-1-ylmethyl-pyrrolidine-1-carbonyl)-3,4-dihydro-1H-isoquinolin-2-yl]-propan-1-one]"
11,18 nM,"O=C(c1ccccc1)N1CCc2cc(C(=O)N3CCC[C@H]3CN3CCCC3)ccc2C1 [Example 48, (S)-Phenyl-[6-(2-pyrrolidin-1-ylmethyl-pyrrolidine-1-carbonyl)-3,4-dihydro-1H-isoquinolin-2-yl]-methanone]"
12,12 nM,"O=C(c1ccccc1Cl)N1CCc2cc(C(=O)N3CCC[C@H]3CN3CCCC3)ccc2C1 [Example 50, (S)-(2-Chloro-phenyl)-[6-(2-pyrrolidin-1-ylmethyl-pyrrolidine-1-carbonyl)-3,4-dihydro-1H-isoquinolin-2-yl]-methanone]"
13,14 nM,"O=C(c1cccc(Cl)c1)N1CCc2cc(C(=O)N3CCC[C@H]3CN3CCCC3)ccc2C1 [Example 51, (S)-(3-Chloro-phenyl)-[6-(2-pyrrolidin-1-ylmethyl-pyrrolidine-1-carbonyl)-3,4-dihydro-1H-isoquinolin-2-yl]-methanone]"
14,15 nM,"N#Cc1cccc(C(=O)N2CCc3cc(C(=O)N4CCC[C@H]4CN4CCCC4)ccc3C2)c1 [Example 52, (S)-3-[6-(2-Pyrrolidin-1-ylmethyl-pyrrolidine-1-carbonyl)-3,4-dihydro-1H-isoquinoline-2-carbonyl]-benzonitrile]"
15,9 nM,"N#Cc1ccc(C(=O)N2CCc3cc(C(=O)N4CCC[C@H]4CN4CCCC4)ccc3C2)cc1 [Example 53, (S)-4-[6-(2-Pyrrolidin-1-ylmethyl-pyrrolidine-1-carbonyl)-3,4-dihydro-1H-isoquinoline-2-carbonyl]-benzonitrile]"
16,9 nM,"Cc1ccccc1C(=O)N1CCc2cc(C(=O)N3CCC[C@H]3CN3CCCC3)ccc2C1 [Example 54, (S)-[6-(2-Pyrrolidin-1-ylmethyl-pyrrolidine-1-carbonyl)-3,4-dihydro-1H-isoquinolin-2-yl]-o-tolyl-methanone]"
17,14 nM,"O=C(c1cccc(F)c1)N1CCc2cc(C(=O)N3CCC[C@H]3CN3CCCC3)ccc2C1 [Example 57, (S)-(3-Fluoro-phenyl)-[6-(2-pyrrolidin-1-ylmethyl-pyrrolidine-1-carbonyl)-3,4-dihydro-1H-isoquinolin-2-yl]-methanone]"
18,17 nM,"O=C(c1ccc(F)cc1)N1CCc2cc(C(=O)N3CCC[C@H]3CN3CCCC3)ccc2C1 [Example 58, (S)-(4-Fluoro-phenyl)-[6-(2-pyrrolidin-1-ylmethyl-pyrrolidine-1-carbonyl)-3,4-dihydro-1H-isoquinolin-2-yl]-methanone]"
19,12 nM,"COc1cccc(C(=O)N2CCc3cc(C(=O)N4CCC[C@H]4CN4CCCC4)ccc3C2)c1 [Example 59, (S)-(3-Methoxy-phenyl)-[6-(2-Pyrrolidin-1-ylmethyl-pyrrolidine-1-carbonyl)-3,4-dihydro-1H-isoquinolin-2-yl]-methanone]"
20,7 nM,COc1ccc(CC(=O)N2CCc3cc(C(=O)N4CCC[C@H]4CN4CCCC4)ccc3C2)cc1 [Example 61]

# — US20090099158A1, “TETRAHYDROISOQUINOLINE COMPOUNDS AS MODULATORS OF THE HISTAMINE H3 RECEPTOR” (priority 2007, published 2009)
